± gives the expanded uncertainty stated by the source.
Key:
[1] = molar heat capacity at constant pressure; settings: 101.33 kPa, Liquid, Vacuum adiabatic calorimetry
[2] = Molar enthalpy of transition or fusion; settings: Crystal; Adiabatic calorimetry
[3] = Crystal

CCCCn1cc[n+](C)c1.O=S(=O)([O-])C(F)(F)F [1-butyl-3-methylimidazolium trifluoromethanesulfonate]
molar heat capacity at constant pressure ([1]; 292.86 K): 425 ± 0.6 J/K/mol
molar heat capacity at constant pressure ([1]; 294.76 K): 425.9 ± 0.6 J/K/mol
molar heat capacity at constant pressure ([1]; 296.65 K): 427 ± 0.6 J/K/mol
molar heat capacity at constant pressure ([1]; 298.54 K): 427.9 ± 0.6 J/K/mol
molar heat capacity at constant pressure ([1]; 300.43 K): 429.1 ± 0.6 J/K/mol
molar heat capacity at constant pressure ([1]; 302.38 K): 429.6 ± 0.6 J/K/mol
molar heat capacity at constant pressure ([1]; 304.36 K): 431.1 ± 0.6 J/K/mol
molar heat capacity at constant pressure ([1]; 306.35 K): 431.9 ± 0.6 J/K/mol
molar heat capacity at constant pressure ([1]; 308.34 K): 433.1 ± 0.6 J/K/mol
molar heat capacity at constant pressure ([1]; 310.33 K): 434 ± 0.6 J/K/mol
molar heat capacity at constant pressure ([1]; 312.32 K): 435.1 ± 0.6 J/K/mol
molar heat capacity at constant pressure ([1]; 314.31 K): 436.3 ± 0.6 J/K/mol
molar heat capacity at constant pressure ([1]; 316.3 K): 437.1 ± 0.6 J/K/mol
molar heat capacity at constant pressure ([1]; 318.29 K): 438.3 ± 0.6 J/K/mol
molar heat capacity at constant pressure ([1]; 320.27 K): 439.1 ± 0.6 J/K/mol
molar heat capacity at constant pressure ([1]; 322.26 K): 440.6 ± 0.6 J/K/mol
molar heat capacity at constant pressure ([1]; 324.25 K): 441.4 ± 0.6 J/K/mol
molar heat capacity at constant pressure ([1]; 326.24 K): 442.6 ± 0.6 J/K/mol
molar heat capacity at constant pressure ([1]; 328.22 K): 443.8 ± 0.6 J/K/mol
molar heat capacity at constant pressure ([1]; 330.2 K): 444.6 ± 0.6 J/K/mol
molar heat capacity at constant pressure ([1]; 332.19 K): 445.8 ± 0.6 J/K/mol
molar heat capacity at constant pressure ([1]; 334.17 K): 446.9 ± 0.6 J/K/mol
molar heat capacity at constant pressure ([1]; 336.15 K): 447.8 ± 0.7 J/K/mol
molar heat capacity at constant pressure ([1]; 338.13 K): 448.9 ± 0.7 J/K/mol
molar heat capacity at constant pressure ([1]; 340.11 K): 449.8 ± 0.7 J/K/mol
molar heat capacity at constant pressure ([1]; 342.09 K): 451 ± 0.7 J/K/mol
molar heat capacity at constant pressure ([1]; 344.07 K): 452.1 ± 0.7 J/K/mol
molar heat capacity at constant pressure ([1]; 346.05 K): 453.3 ± 0.7 J/K/mol
molar heat capacity at constant pressure ([1]; 348.03 K): 454.3 ± 0.7 J/K/mol
molar heat capacity at constant pressure ([1]; 350 K): 455.5 ± 0.7 J/K/mol
molar heat capacity at constant pressure ([1]; 351.98 K): 456.3 ± 0.7 J/K/mol
molar heat capacity at constant pressure ([1]; 353.96 K): 457.8 ± 0.7 J/K/mol
molar heat capacity at constant pressure ([1]; 355.94 K): 458.6 ± 0.7 J/K/mol
molar heat capacity at constant pressure ([1]; 357.92 K): 459.5 ± 0.7 J/K/mol
molar heat capacity at constant pressure ([1]; 359.89 K): 460.7 ± 0.7 J/K/mol
molar heat capacity at constant pressure ([1]; 361.87 K): 462.1 ± 0.7 J/K/mol
molar heat capacity at constant pressure ([1]; 363.84 K): 463 ± 0.7 J/K/mol
molar heat capacity at constant pressure ([1]; 365.81 K): 464.1 ± 0.7 J/K/mol
molar heat capacity at constant pressure ([1]; 367.78 K): 465 ± 0.7 J/K/mol
Molar enthalpy of transition or fusion [2]: 19.4 ± 0.1 kJ/mol
Triple point temperature [3]: 290.98 ± 0.2 K

Source: the NIST ThermoML archive (doi:10.1021/je900974u)
